Measurements taken from US9012651B2, “TRPV3 modulators” (AbbVie Inc., priority 2011, dated 2015).

Molecular target: human TRPV3 receptors (Homo sapiens (Human), UniProt Q8NET8)
Assay: Calcium flux assay (FLIPR TETRA), inhibition of the 2-APB response
Type: cell-based
Conditions: recombinant HEK293 cells stably expressing TRPV3, Calcium-4 dye, 2-APB at its EC80
In short: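 HEK293 cells stably expressing human and mouse TRPV3, plated the day before and dye-loaded 90-120 min in the dark, read on FLIPR Tetra. Peak fluorescence increase over baseline was expressed as percent of the maximal 2-APB response without compound.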

Chain of human TRPV3 receptors (Q8NET8 whole entry): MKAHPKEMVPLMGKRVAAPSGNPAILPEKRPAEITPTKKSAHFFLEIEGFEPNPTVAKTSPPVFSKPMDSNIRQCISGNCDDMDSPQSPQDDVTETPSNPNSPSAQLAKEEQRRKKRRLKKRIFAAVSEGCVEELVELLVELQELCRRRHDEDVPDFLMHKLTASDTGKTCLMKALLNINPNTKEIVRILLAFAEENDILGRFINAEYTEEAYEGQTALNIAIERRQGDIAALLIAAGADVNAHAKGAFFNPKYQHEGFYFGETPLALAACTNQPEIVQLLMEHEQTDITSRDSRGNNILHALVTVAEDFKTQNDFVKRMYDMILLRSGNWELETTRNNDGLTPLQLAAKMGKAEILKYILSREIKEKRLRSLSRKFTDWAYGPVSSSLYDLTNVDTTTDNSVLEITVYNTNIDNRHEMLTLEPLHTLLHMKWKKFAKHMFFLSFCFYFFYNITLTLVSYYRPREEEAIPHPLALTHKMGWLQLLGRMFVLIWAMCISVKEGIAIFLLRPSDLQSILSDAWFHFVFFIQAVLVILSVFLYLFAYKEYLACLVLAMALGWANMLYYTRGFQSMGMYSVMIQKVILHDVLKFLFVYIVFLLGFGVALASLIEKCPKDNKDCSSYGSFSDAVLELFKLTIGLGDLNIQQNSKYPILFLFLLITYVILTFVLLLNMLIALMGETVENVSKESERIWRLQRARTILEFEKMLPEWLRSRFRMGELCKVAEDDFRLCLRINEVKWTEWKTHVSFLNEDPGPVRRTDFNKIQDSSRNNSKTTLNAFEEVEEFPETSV

IC50	SMILES
> 20000 nM	CC(C)(CO)NCc1ccnc(-c2ccc(C(F)(F)F)cc2)n1 [Example 136, 2-methyl-2-[({2-[4-(trifluoromethyl)phenyl]pyrimidin-4-yl}methyl)amino]propan-1-ol]
> 20000 nM	CC(C)[C@H](CO)NCc1ccnc(-c2ccc(C(F)(F)F)cn2)n1 [Example 192, (2R)-3-methyl-2-[({2-[5-(trifluoromethyl)pyridin-2-yl]pyrimidin-4-yl}methyl)amino]butan-1-ol]
> 20000 nM	COCC(CO)NCc1ccnc(-c2ccc(C(F)(F)F)nc2)n1 (stereo not shown) [Example 187, 3-methoxy-2-[({2-[6-(trifluoromethyl)pyridin-3-yl]pyrimidin-4-yl}methyl)amino]propan-1-ol]
320 nM	CC(C)[C@H](CO)NCc1nc(-c2ccc(F)cc2)ccc1F [Example 27, (2R)-2-({[3-fluoro-6-(4-fluorophenyl)pyridin-2-yl]methyl}amino)-3-methylbutan-1-ol]
500 nM	CCN(CC)S(=O)(=O)c1cccc(-c2ccc(F)c(CN[C@@H](CO)C(C)C)n2)c1 [Example 51, N,N-diethyl-3-[5-fluoro-6-({[(2R)-1-hydroxy-3-methylbutan-2-yl]amino}methyl)pyridin-2-yl]benzenesulfonamide]
1640 nM	C[C@H](CO)NCc1nc(-c2ccc(C(F)(F)F)cc2)ccc1F [Example 82, (2R)-2-[({3-fluoro-6-[4-(trifluoromethyl)phenyl]pyridin-2-yl}methyl)amino]propan-1-ol]
1870 nM	CC(O)C(C)NCc1ccnc(-c2ccc(C(F)(F)F)cc2)n1 (stereo not shown) [Example 148, 3-[({2-[4-(trifluoromethyl)phenyl]pyrimidin-4-yl}methyl)amino]butan-2-ol]
790 nM	CC(C)[C@H](CO)NCc1nc(C2CCC(C)(C)CC2)ccc1F [Example 202, (2R)-2-({[6-(4,4-dimethylcyclohexyl)-3-fluoropyridin-2-yl]methyl}amino)-3-methylbutan-1-ol]
1400 nM	CC(=O)c1cccc(-c2ccc(F)c(CN[C@@H](CO)C(C)C)n2)c1 [Example 40, 1-{3-[5-fluoro-6-({[(2R)-1-hydroxy-3-methylbutan-2-yl]amino}methyl)pyridin-2-yl]phenyl}ethanone]
1740 nM	CC(C)[C@H](CO)NCc1nc(-c2cccc3c2ccn3C)ccc1F [Example 63, (2R)-2-({[3-fluoro-6-(1-methyl-1H-indol-4-yl)pyridin-2-yl]methyl}amino)-3-methylbutan-1-ol]
920 nM	C=C(c1ccccc1)c1ccc(F)c(CN[C@@H](CO)C(C)C)n1 [Example 124, (2R)-2-({[3-fluoro-6-(1-phenylethenyl)pyridin-2-yl]methyl}amino)-3-methylbutan-1-ol]
2190 nM	CC(C)[C@H](CO)NCc1nc(-c2ccnc(C(F)(F)F)c2)ccc1F [Example 31, (2R)-2-({[5-fluoro-2′-(trifluoromethyl)-2,4′-bipyridin-6-yl]methyl}amino)-3-methylbutan-1-ol]
> 20000 nM	OC[C@@H]1CCCC[C@@H]1NCc1ccnc(-c2ccc(C(F)(F)F)cc2)n1 [Example 168, {(1R,2S)-2-[({2-[4-(trifluoromethyl)phenyl]pyrimidin-4-yl}methyl)amino]cyclohexyl}methanol]
1070 nM	Cc1ccc(-c2ccc(C(F)(F)F)nc2)nc1CN[C@@H](CO)C(C)C [Example 111, (2R)-3-methyl-2-({[5-methyl-6′-(trifluoromethyl)-2,3′-bipyridin-6-yl]methyl}amino)butan-1-ol]
540 nM	CC(C)[C@@H](NCc1nc(-c2ccc(C(F)(F)F)nc2)ccc1F)C(C)O (stereo partly drawn) [Example 108, (3R)-3-({[5-fluoro-6′-(trifluoromethyl)-2,3′-bipyridin-6-yl]methyl}amino)-4-methylpentan-2-ol]
1260 nM	CC(C)[C@@H](NCc1nc(-c2ccc(C(F)(F)F)nc2)ccc1F)C(C)(C)O [Example 106, (3R)-3-({[5-fluoro-6′-(trifluoromethyl)-2,3′-bipyridin-6-yl]methyl}amino)-2,4-dimethylpentan-2-ol]
230 nM	CC(C)[C@H](CO)NCc1nc(-c2ccc3sccc3c2)ccc1F [Example 255, (2R)-2-({[6-(1-benzothiophen-5-yl)-3-fluoropyridin-2-yl]methyl}amino)-3-methylbutan-1-ol]
390 nM	CC(C)[C@H](CO)NCc1nc(-c2ccc(Cl)cc2)ccc1F [Example 42, (2R)-2-({[6-(4-chlorophenyl)-3-fluoropyridin-2-yl]methyl}amino)-3-methylbutan-1-ol]
3680 nM	COCC(CO)NCc1nc(-c2ccc(C(F)(F)F)cc2)ccc1F (stereo not shown) [Example 74, 2-[({3-fluoro-6-[4-(trifluoromethyl)phenyl]pyridin-2-yl}methyl)amino]-3-methoxypropan-1-ol]
1110 nM	COc1ccc(C#Cc2ccc(F)c(CN[C@@H](CO)C(C)C)n2)cc1 [Example 235, (2R)-2-[({3-fluoro-6-[(4-methoxyphenyl)ethynyl]pyridin-2-yl}methyl)amino]-3-methylbutan-1-ol]

IC50	SMILES
810 nM	CC(C)[C@H](CO)NCc1nc(-c2cccc(F)c2)ccc1F [Example 14, (2R)-2-({[3-fluoro-6-(3-fluorophenyl)pyridin-2-yl]methyl}amino)-3-methylbutan-1-ol]
2530 nM	C[C@@H](O)[C@@H](CO)NCc1ccnc(-c2ccc(S(=O)(=O)C(F)(F)F)cc2)n1 [Example 212, (2R,3R)-2-{[(2-{4-[(trifluoromethyl)sulfonyl]phenyl}pyrimidin-4-yl)methyl]amino}butane-1,3-diol]
2460 nM	CC(C)[C@H](CO)NCc1nc(C2CCN(C(=O)OC(C)(C)C)CC2)ccc1F [Example 205, tert-butyl 4-[5-fluoro-6-({[(2R)-1-hydroxy-3-methylbutan-2-yl]amino}methyl)pyridin-2-yl]piperidine-1-carboxylate]
80 nM	CC(C)[C@H](CO)NCc1nc(-c2cc(F)cc(F)c2)ccc1F [Example 247, (2R)-2-({[6-(3,5-difluorophenyl)-3-fluoropyridin-2-yl]methyl}amino)-3-methylbutan-1-ol]
680 nM	OCC1(NCc2nc(-c3ccc(C(F)(F)F)cc3)ccc2F)CCCCC1 [Example 81, {1-[({3-fluoro-6-[4-(trifluoromethyl)phenyl]pyridin-2-yl}methyl)amino]cyclohexyl}methanol]
3810 nM	CC[C@H](C)[C@@H](CO)NCc1cccc(-c2ccc(C(F)(F)F)cc2)n1 [Example 2, (2S,3S)-3-methyl-2-[({6-[4-(trifluoromethyl)phenyl]pyridin-2-yl}methyl)amino]pentan-1-ol]
630 nM	CC(C)[C@H](CO)NCc1nc(-c2ccc(C(F)(F)F)nc2)ccc1Cl [Example 110, (2R)-2-({[5-chloro-6′-(trifluoromethyl)-2,3′-bipyridin-6-yl]methyl}amino)-3-methylbutan-1-ol]
8080 nM	OC[C@H](NCc1ccnc(-c2ccc(C(F)(F)F)cc2)n1)c1ccccc1 [Example 139, (2R)-2-phenyl-2-[({2-[4-(trifluoromethyl)phenyl]pyrimidin-4-yl}methyl)amino]ethanol]
280 nM	CC(C)[C@H](CO)NCc1nc(-c2cncc(C(F)(F)F)c2)ccc1F [Example 292, (2R)-2-({[5-fluoro-5′-(trifluoromethyl)-2,3′-bipyridin-6-yl]methyl}amino)-3-methylbutan-1-ol]
> 20000 nM	CC(C)[C@@H](CO)NCc1ccnc(-c2ccc(C(F)(F)F)cc2)n1 [Example 155, (2S)-3-methyl-2-[({2-[4-(trifluoromethyl)phenyl]pyrimidin-4-yl}methyl)amino]butan-1-ol]
> 20000 nM	CC[C@H](CO)NCc1ccnc(-c2ccc(C(F)(F)F)cn2)n1 [Example 194, (2R)-2-[({2-[5-(trifluoromethyl)pyridin-2-yl]pyrimidin-4-yl}methyl)amino]butan-1-ol]
5510 nM	O[C@H]1CCCC[C@@H]1NCc1ccnc(-c2ccc(C(F)(F)F)cc2)n1 [Example 171, (1S,2S)-2-[({2-[4-(trifluoromethyl)phenyl]pyrimidin-4-yl}methyl)amino]cyclohexanol]
480 nM	CC(c1ccc(F)cc1)c1ccc(F)c(CN[C@@H](CO)C(C)C)n1 (stereo partly drawn) [Example 128, (2R)-2-[({3-fluoro-6-[1-(4-fluorophenyl)ethyl]pyridin-2-yl}methyl)amino]-3-methylbutan-1-ol]
170 nM	CC(C)[C@H](CO)NCc1nc(C#CCCC2CCCCC2)ccc1F [Example 288, (2R)-2-({[6-(4-cyclohexylbut-1-yn-1-yl)-3-fluoropyridin-2-yl]methyl}amino)-3-methylbutan-1-ol]
2590 nM	CC(O)C(C)NCc1nc(-c2ccc(C(F)(F)F)nc2)ccc1F (stereo not shown) [Example 90, 3-({[5-fluoro-6′-(trifluoromethyl)-2,3′-bipyridin-6-yl]methyl}amino)butan-2-ol]
> 20000 nM	OCC1(CNCc2ccnc(-c3ccc(C(F)(F)F)cc3)n2)COC1 [Example 160]
290 nM	CC(C)[C@H](CO)NCc1nc(-c2ccc(C(F)(F)F)c(Cl)c2)ccc1F [Example 47, (2R)-2-[({6-[3-chloro-4-(trifluoromethyl)phenyl]-3-fluoropyridin-2-yl}methyl)amino]-3-methylbutan-1-ol]
700 nM	CC(C)[C@@H](NCc1nc(-c2ccc(C(F)(F)F)cc2)ccc1F)C(C)O (stereo partly drawn) [Example 107, (3R)-3-[({3-fluoro-6-[4-(trifluoromethyl)phenyl]pyridin-2-yl}methyl)amino]-4-methylpentan-2-ol]
> 20000 nM	CC(C)(CO)CNCc1ccnc(-c2ccc(C(F)(F)F)cc2)n1 [Example 156, 2,2-dimethyl-3-[({2-[4-(trifluoromethyl)phenyl]pyrimidin-4-yl}methyl)amino]propan-1-ol]

SMILES	IC50
CC(C)[C@H](CO)NCc1cccc(-c2cccc([Si](C)(C)C)c2)n1 [Example 226, (2R)-3-methyl-2-[({6-[3-(trimethylsilyl)phenyl]pyridin-2-yl}methyl)amino]butan-1-ol]	600 nM
